Literature values as cited in patent publication US9199951B2, “Process for the manufacture of a 1,2-epoxide” (Hexion Inc., priority 2008, dated 2015).
Converted amounts (≈) assume the structure as drawn.

Settings: grams per liter water at 20° C.; for Solubility in water: terminal olefins of Table 2

SMILES	Solubility in water	solubility
C=CCCCCCC [1-octene]	0.27 µg/mL (≈ 2.41 µM)	
C=CCOC(C)=O [Allyl acetate]	~10000 µg/mL	about 10 g/L
C=CCO [Allyl alcohol]	miscible	
C=CCCl [Allyl chloride]	3600 µg/mL	3600 µg/mL
C=CCBr [allyl bromide]		4000 µg/mL
